Activity calls are given as the source filed them. The calls are words filed in the database; no cut-off is given here. Starred links: 1 amine or outer side, 2 acyl side, 3 side chain; linkers in the order of their positions; H or OH if unused. Positions of bridges follow the written chain, without caps; N, C: chain ends. Non-standard residues stand in square brackets, D forms with d. Residues, ends and D or L forms follow the SMILES beside them. X2 = O=C(/C=C/c1csc([C@H](Cc2ccc(O)cc2)N[*:1])n1)[*:2]; X1 = CC[C@H](C)[C@H](N[*:1])C(=O)C(=O)[*:2]; Cya = N[C@@H](CS(=O)(=O)O)C(=O)O; Nva = CCC[C@H](N)C(=O)O; Abu = CC[C@H](N)C(=O)O; Dap = NC[C@H](N)C(=O)O
Assays:
OVCAR [1] = test: Cytotoxicity against human OVCAR cells assessed as cell viability upto 100 uM incubated for 72 hrs by resazurin dye based fluorescence assay; assay type: functional
MDA-MB-231 [2] = test: Cytotoxicity against human MDA-MB-231 cells assessed as cell viability upto 100 uM incubated for 72 hrs by resazurin dye based fluorescence assay; assay type: functional
HCT-116 [3] = test: Cytotoxicity against human HCT-116 cells assessed as cell viability upto 100 uM incubated for 72 hrs by resazurin dye based fluorescence assay; assay type: functional
Chymotrypsinogen A = Chymotrypsinogen A (Bos taurus, UniProt P00766); test: Inhibition of bovine pancreatic alpha chymotrypsin using N-succinyl-Gly-Gly-Phe-p-nitroanilide as substrate preincubated with enzyme for 10 mins followed by substrate addition and measured for 30 mins
[4] = Inhibition of porcine pancreatic elastase using N-succinyl-Ala-Ala-Ala-p-nitroanilide as substrate preincubated with enzyme for 15 mins followed by substrate addition and measured for 30 mins; parameters: species or system Sus scrofa
[5] = target: Replicase polyprotein 1ab (Severe acute respiratory syndrome coronavirus 2, UniProt P0DTD1); test: Inhibition of SARS-CoV-2 3CLpro incubated for 4 hrs
MDA-MB-231 [6] = test: Cytotoxicity against human MDA-MB-231 cells assessed as cell viability at >20 uM incubated for 72 hrs by resazurin dye based fluorescence assay; assay type: functional
L1210 = test: Cytotoxicity against mouse L1210 cells assessed as reduction in cell viability; assay type: functional, cell-based
OVCAR [7] = test: Cytotoxicity against human OVCAR cells assessed as cell viability at > 20 uM incubated for 72 hrs by resazurin dye based fluorescence assay; assay type: functional
KB = test: Cytotoxicity against human KB cells assessed as reduction in cell viability; assay type: functional, cell-based
HCT-116 [8] = test: Cytotoxicity against human HCT-116 cells assessed as cell viability at >20 uM incubated for 72 hrs by resazurin dye based fluorescence assay; assay type: functional

Structure (SMILES): CC[C@H](C)[C@@H]1NC(=O)[C@H](CC(C)C)NC(=O)[C@@H](N2C(=O)N[C@@H](C)C2=O)CNC(=O)[C@H](CS(=O)(=O)O)NC(=O)/C=C/c2csc(n2)[C@H](Cc2ccc(O)cc2)NC(=O)C1=O
- Activity (OVCAR [1]): inactive
- Activity (MDA-MB-231 [2]): inactive
- Activity (HCT-116 [3]): inactive
- IC50 (Chymotrypsinogen A): 1900 nM
- IC50 [4]: 17.6 nM

Structure (SMILES): CC[C@@H]1NC(=O)[C@@H](N2C(=O)N[C@@H](C)C2=O)CNC(=O)[C@H](CS(=O)(=O)O)NC(=O)/C=C/c2csc(n2)[C@H](Cc2ccc(O)cc2)NC(=O)C(=O)[C@H]([C@@H](C)CC)NC1=O
- Activity (OVCAR [1]): inactive
- Activity (MDA-MB-231 [2]): inactive
- Activity (HCT-116 [3]): inactive
- IC50 (Chymotrypsinogen A): 2700 nM
- IC50 [4]: 61.8 nM

Structure (SMILES): CCC[C@@H]1NC(=O)[C@@H](NC(=O)[C@H](C)N)CNC(=O)[C@H](CS(=O)(=O)O)NC(=O)/C=C/c2csc(n2)[C@H](Cc2ccc(O)cc2)NC(=O)C(=O)[C@H]([C@@H](C)CC)NC1=O (H-A[Dap][Nva][X1][X2][Cya]; lactam 2-C)
- IC50 (Chymotrypsinogen A): 2400 nM
- IC50 [4]: 20.1 nM
- IC50 [5]: 16100 nM

Structure (SMILES): CC(C)C[C@@H]1NC(=O)[C@H](NC(=O)N[C@@H](Cc2ccccc2)C(=O)O)CCCCNC(=O)[C@H](Cc2ccccc2)NC(=O)[C@H](Cc2c[nH]c3cc(Cl)ccc23)N(C)C(=O)[C@H](CC(C)C)NC1=O
- Activity (MDA-MB-231 [6]): Active
- IC50 (L1210): 500 nM
- Activity (OVCAR [7]): Active
- IC50 (KB): 970 nM
- Activity (HCT-116 [8]): Active
- IC50 [5]: 4600 nM

Structure (SMILES): CC[C@H](C)[C@@H]1NC(=O)[C@H](CC(C)C)NC(=O)[C@@H](NC(=O)[C@H](C)N)CNC(=O)[C@H](CS(=O)(=O)O)NC(=O)/C=C/c2csc(n2)[C@H](Cc2ccc(O)cc2)NC(=O)C1=O (H-A[Dap]L[X1][X2][Cya]; lactam 2-C)
- IC50 (Chymotrypsinogen A): 2000 nM
- IC50 [4]: 28 nM
- IC50 [5]: 6100 nM

Structure (SMILES): CC(C)C[C@@H]1NC(=O)[C@H](NC(=O)N[C@@H](Cc2ccccc2)C(=O)O)CCCCNC(=O)[C@H](Cc2ccccc2)NC(=O)[C@H](Cc2c[nH]c3cc(Cl)c(O)cc23)N(C)C(=O)[C@H](CC(C)C)NC1=O
- IC50 (Chymotrypsinogen A): 730 nM
- IC50 [4]: 51.3 nM
- IC50 [5]: 1100 nM

Structure (SMILES): O=S(=O)(F)Cc1ccccc1 [PHENYLMETHYLSULFONYLFLUORIDE]
- IC50 (Chymotrypsinogen A): 420 nM
- IC50 [4]: 138 nM

Structure (SMILES): CCC[C@@H]1NC(=O)[C@@H](N2C(=O)N[C@@H](C)C2=O)CNC(=O)[C@H](CS(=O)(=O)O)NC(=O)/C=C/c2csc(n2)[C@H](Cc2ccc(O)cc2)NC(=O)C(=O)[C@H]([C@@H](C)CC)NC1=O
- Activity (OVCAR [1]): inactive
- Activity (MDA-MB-231 [2]): inactive
- Activity (HCT-116 [3]): inactive
- IC50 (Chymotrypsinogen A): 2500 nM
- IC50 [4]: 34.8 nM

Structure (SMILES): CC[C@@H]1NC(=O)[C@@H](NC(=O)[C@H](C)N)CNC(=O)[C@H](CS(=O)(=O)O)NC(=O)/C=C/c2csc(n2)[C@H](Cc2ccc(O)cc2)NC(=O)C(=O)[C@H]([C@@H](C)CC)NC1=O (H-A[Dap][Abu][X1][X2][Cya]; lactam 2-C)
- IC50 (Chymotrypsinogen A): 1600 nM
- IC50 [4]: 16 nM

Source: ChEMBL document CHEMBL5390207, “Cyclotheonellazoles D-I, Potent Elastase Inhibitory Thiazole-Containing Cyclic Peptides from Theonella sp. (2131)” (J Nat Prod, 2023)
